This is an account of results in US8212010B2, “Sphingosine 1-phosphate antagonism” (Expression Drug Designs, LLC, priority 2008, dated 2012).

Each structure is given as a SMILES string.

One experiment has as its system S1P receptor. The note with it: with the exception of S1P2; by stable internalization; cited from earlier work.
A further experiment deals with tumor transplant model. As to conditions: in vivo; cited from earlier work.
The subject of experiment [1] is MDA-MB-231 breast cancer cells. The experiment is described as follows: S1P-induced cytoskeletal rearrangement / cell rounding. It counts as cell-based, human. The procedure: MDA-MB-231 breast cancer cells are cultured on collagen-coated coverslips in the presence of 10% FBS using standard techniques. Because S1P is present at high concentrations in serum, BCCs are “serum-starved” in Dulbecco's modified Eagle medium (DMEM) for 12 hours prior to experimental manipulation. S1P is solubilized with bovine serum albumin (BSA) carrier and administered at a final concentration of 1 nM to 1 μM. Coverslips are collected at representative time points such as 10 minutes, 1 hr., 2 hrs., 4 hrs., and 6 hrs., fixed with 4% paraformaldehyde, and stained with rhodamine-conjugated phalloidin to label cytoskeletal actin.
The cell rounding experiment can be performed using an antagonist of S1P that binds to S1P3. […] Serum-starved MDA-MB-231 cells are incubated with preimmune serum or S1P3-reactive antiserum for 15 minutes prior to a 30-minute exposure to 10 nM S1P, then evaluated for response both in % cells responding and average cell area.
MDA-MB-231 cells are grown under standard culture conditions and serum starved for 24 hours prior to experimental manipulation. […] 30 minutes after S1P administration, cells are fixed with 4% paraformaldehyde, stained with rhodamine-conjugated phalloidin, and visualized with fluorescence microscopy. Rounded cells are counted by an experimenter blinded to the identity of the sample. Cell area is determined by quantification with imageJ software.

Experiment [2] has as its system MDA-MB-231 cells. The experiment is described as follows: Cell motility, modified Boyden's chamber assay. The note with it: 1 μM S1P; two hour time point. It counts as cell-based, human. The procedure:
Cell motility is determined using a modified Boyden's chamber assay. MDA-MB-231 cells are introduced into the upper wells of collagen-coated chambers in serum-free DMEM and incubated for 30 minutes before the addition of either 1 μM S1P in BSA or BSA alone. At the indicated times, wells are isolated and fixed with 4% paraformaldehyde before non-migrated cells in the upper well are removed with a cotton swab. Membranes are then stained with DAPI to visualize individual migrated cells on the bottom of the membranes. Results shown are the averages of three independent experiments. Determination of the effect of S1P3 blocking antibodies on the migration of cancer cells can be performed as follows. The effect of S1P3 blocking antibodies is determined using a modified Boyden chamber assay as described above. In this case, an appropriate cell line (such as […]) is seeded into the upper chamber of the transwell and pre-treated with a blocking antibody or control antibody. […] Cells are then fixed and counted as described above. The anti-migratory effect of the blocking antibody is determined by comparing the number of migrated cells in the presence of the antibody to the number of migrated cells in the presence of an appropriate control antibody under the same stimulatory conditions.

The subject of experiment [3] is MDA-MB-231 cells. Nature of the experiment: Tamoxifen toxicity, cell viability by phase contrast microscopy. It counts as cell-based, human. The method, then:
The experiment can be performed first without a S1P antagonist. MDA-MB-231 cells are cultured under standard conditions in […] supplemented with 10% fetal bovine serum and glutamate. Cells are grown in the absence of serum for 24 hours prior to experimental manipulation. Tamoxifen (Tam) and S1P are added to the media at the indicated concentrations for the indicated times at the appropriate concentrations (e.g., 3 μM Tam, 10 μM Tam, and 20 μM Tam) for appropriate times (e.g., 6 hrs. and 24 hrs.). Cell viability is observed by direct illumination with an inverted phase contrast microscope.
The tamoxifen toxicity experiment can be performed using an antagonist of S1P that binds to S1P3. For example, the antiserum described in Example 1 can be employed. MDA-MB-231 cells are cultured under standard conditions in Dulbecco's Minimal Essential Media supplemented with 10% fetal bovine serum and glutamate. Serum concentration is reduced to 1% for 24 hours prior to experimental manipulation. Tamoxifen and S1P are added to the media at the appropriate concentrations (e.g., 0 μM Tam, 10 μM Tam, and 20 μM Tam) for appropriate times (e.g., 6 hrs. and 24 hrs.). Cell viability is observed by direct illumination with an inverted phase contrast microscope.

In the next experiment the test system is MCF-7 cells. Nature of the experiment: Cell death by annexin V assay. It counts as cell-based, human. The method, then: Quantification of cell death can be performed with an annexin V assay. Serum-starved cells can be treated overnight with […] tamoxifen in the presence or absence of 500 nM S1P, then collected by trypsinization, and labeled with Alexafluor 488-conjugated annexin V (Invitrogen Corp, Carlsbad, Calif.) per manufacturer's protocol. Cells can be counted on a FACSAria cell sorting system and analyzed with FACSDiva software (BD Biosciences, San Jose, Calif.). […] This effect is attenuated by co-administration of 500 nM S1P.

Regarding `CCCCCCCCc1ccc(CCC(N)(CO)CO)cc1` [FTY720], the “inhibition of S1P receptors” value in the experiment on S1P receptor is “effectively inhibit four of the five known receptors”. The “effect on angiogenesis and tumor growth” value in the experiment on tumor transplant model is “inhibit angiogenesis and subsequent growth”.

In the case of `CCCCCCCCCCCCC/C=C/[C@@H](O)[C@@H](N)COP(=O)(O)O` [S1P, Sphingosine 1-phosphate], the cell shape change entry in experiment [1] (1 nM S1P) was “minor cell shape changes”; in experiment [1] (10 nM S1P) it was “dramatic cell rounding”. The “increase in migrated cells compared to vehicle control” value with MDA-MB-231 cells [2] is on record as “nearly two-fold increase”. Further, the “cell viability under tamoxifen with S1P” value with MDA-MB-231 cells [3] (serum-free, 6 hours, media supplemented with 1 μM S1P) is listed as “many viable cells remain”; with MDA-MB-231 cells [3] (serum-free, 24 hour, addition of S1P) it was “markedly improves survival”. Further, the “effect on tamoxifen-induced annexin V binding” value in the experiment on MCF-7 cells (co-administration of 500 nM S1P) is listed as “attenuated”.

Regarding `CC/C(=C(\c1ccccc1)c1ccc(OCCN(C)C)cc1)c1ccccc1` [Tamoxifen], the cell viability result in the experiment with MDA-MB-231 cells [3] (1% FBS, 6 hours, 10 μM Tam) is on record as “appear normal”; in the experiment with MDA-MB-231 cells [3] (1% FBS, 6 hours, 20 μM Tam), “begin to show evidence of cell death”; in the experiment with MDA-MB-231 cells [3] (24 hours, 10 μM Tam, control conditions) it was “most cells remain healthy”; with MDA-MB-231 cells [3] (serum-free, 6 hours, 10 μM tamoxifen), “only a few viable cells remain”; in the experiment with MDA-MB-231 cells [3] (serum-free, 6 hours, 20 μM tamoxifen) it was “all cells are dead/dying”; in the experiment with MDA-MB-231 cells [3] (serum-free, 24 hour, 3 μM tamoxifen), “most control cells are lost”. In the experiment on MDA-MB-231 cells [3] (serum-free, 24 hour, 10 μM tamoxifen), the cell viability result was “cell death is complete”. Also, in the experiment on MCF-7 cells (overnight treatment of MCF-7 cells), the “annexin V binding (apoptotic cell death)” value is “increase in annexin V binding”.
